In patent US12234202B2, “Covalent inhibitors of coronavirus papain-like protease” (UT-Battelle, LLC, priority 2021, dated 2025):
Like-named read-outs stand apart in the source and are kept apart here.

Assays:
[1] = biological target: T1, SARS-CoV-2 PLpro (Severe acute respiratory syndrome coronavirus 2, UniProt P0DTD1); experiment: biochemical; details: for kinact/KI / kinact/KI (M^−1 s^−1): second-order rate constant
[2] = biological target: T1, SARS-CoV-2 PLpro; experiment: biochemical; assay type: biochemical; details: after 30-minute incubation; Z-RLRGG-AMC
[3] = biological target: seven human DUBs, UCHL1, USP2, USP4, USP7, USP8, USP15, and USP30; experiment: Human deubiquitinase selectivity screening; assay type: biochemical; details: for IC50: UCHL1, USP2, USP4, USP7, USP8, USP15, USP30, read-out: IC50 (μM) values versus seven human deubiquitinases; for inhibition of human DUBs: concentrations up to 30 μM
[4] = system: SARS-CoV-2 USA-WA1/2020; experiment: CPE assay in Vero E6 cells, neutral red staining, USA-WA1/2020; assay type: cell-based; details: Severe acute respiratory syndrome coronavirus 2, Vero C1008
[5] = system: SARS-CoV-2 Delta (B.1.617.2); experiment: CPE assay in Vero E6 cells, neutral red staining, Delta; assay type: cell-based; details: Severe acute respiratory syndrome coronavirus 2, Vero C1008
[6] = system: SARS-CoV-2 Omicron (B.1.1.529); experiment: CPE assay in Vero E6 cells, neutral red staining, Omicron; assay type: cell-based; details: Severe acute respiratory syndrome coronavirus 2, Vero C1008
[7] = system: SARS-CoV-2 USA-WA1/2020; experiment: microbe, parasite or virus in culture; assay type: cell-based; details: Severe acute respiratory syndrome coronavirus 2, Caco-2
[8] = system: SARS-CoV-2 Delta (B.1.617.2); experiment: microbe, parasite or virus in culture; assay type: cell-based; details: Severe acute respiratory syndrome coronavirus 2, Caco-2
[9] = system: SARS-CoV-2 Omicron (B.1.1.529); experiment: microbe, parasite or virus in culture; assay type: cell-based; details: Severe acute respiratory syndrome coronavirus 2, Caco-2
[10] = system: Vero E6 cells
[11] = system: Vero E6 cells; details: 2 μM CP-100356, Delta row
[12] = system: Caco-2 cells; details: Delta row
[13] = mouse, in vivo
[14] = in vitro; details: African green monkey
[15] = in vitro; details: African green monkey; remark: listed apart in the source
[16] = in vitro; details: human
[17] = in vitro; details: human, microsomes
[18] = in vitro; details: human, s9
[19] = biological target: T1, SARS-CoV-2 PLpro; experiment: biochemical; details: Ub-rhodamine substrate
[20] = biological target: T1, SARS-CoV-2 PLpro; experiment: biochemical; details: ISG15-CHOP2 substrate
[21] = system: SARS-CoV-2 isolate USA-WA1/2020; experiment: microbe, parasite or virus in culture; assay type: cell-based
[22] = system: viral replication in Vero E6 cells; details: K. Ratia et al.; cited from earlier work
[23] = biological target: SARS-CoV PLpro (Severe acute respiratory syndrome coronavirus (SARS-CoV), UniProt P0C6X7); details: cited from earlier work
[24] = biological target: HAUSP (Homo sapiens (Human), UniProt Q93009); details: K. Ratia et al.; cited from earlier work
[25] = biological target: deISGylase USP18 (Homo sapiens (Human), UniProt Q9UMW8); details: K. Ratia et al.; cited from earlier work
[26] = biological target: ubiquitin C-terminal hydrolase UCH-L1 (Homo sapiens (Human), UniProt P09936); details: K. Ratia et al.; cited from earlier work
[27] = biological target: ubiquitin C-terminal hydrolase UCH-L3 (Homo sapiens (Human), UniProt P15374); details: K. Ratia et al.; cited from earlier work
[28] = system: cell viability; details: concentrations up to 50 μM in cell viability assays; cited from earlier work
[29] = time-dependent inhibition yes/no
[30] = cytopathic effect in SARS-CoV-2-infected Vero E6 cells, 48 h, MOI 0.1

Molecule	Time dep. [1, 29]	IC50 [2]	Cytotox. (<30 μM) [10]	CC50 at 48 h [14]	kinact/KI [1]	EC50 (μM) [21, 30]	also measured
COC(=O)CCc1ccccc1C(=O)N[C@H](C)c1cccc2ccccc12 [Compound 3, methyl (R)-3-(2-((1-(naphthalen-1-yl)ethyl)carbamoyl)phenyl)-propanoate]	no	–	–	–	–	–	–
C[C@@H](NC(=O)c1ccccc1CCC(=O)NN)c1cccc2ccccc12 [Compound 5, (R)-2-(3-hydrazineyl-3-oxopropyl)-N-(1-(naphthalen-1-yl)ethyl)benzamide]	no	24 µM	–	–	–	–	–
COC(=O)/C=C/C(=O)NNC(=O)CCc1ccccc1C(=O)N[C@H](C)c1cccc2ccccc12 [Compound 7, methyl(R,E)-4-(2-(3-(2-((1-(naphthalen-1 yl)ethyl)carbamoyl)-phenyl)propanoyl)hydrazineyl)-4-oxobut-2-enoate]	yes	–	no	> 30 µM	–	–	IC50 [3]: > 30 µM; inhibition of human DUBs [3]: no inhibition was observed; EC50 [4]: 0.068 µM; EC50 [5]: 0.29 µM; EC50 [6]: 0.68 µM; EC90 [7]: 0.26 µM; EC90 [8]: > 10 µM; EC90 [9]: 2.4 µM; CC50 [11]: > 10 µM; CC50 [12]: > 10 µM; exposure following IV dosing ([13]; iv, 3 mg/kg): Little exposure was observed; exposure following PO dosing ([13]; po, 10 mg/kg): no exposure recorded; CC50 [15]: > 10 µM; CC50 [16]: > 10 µM; half-life at 1 μM [17]: 50 min; half-life at 1 μM [18]: 60 min
COC(=O)/C=C/C(=O)NNC(=O)CCc1ccc(NC(C)=O)cc1C(=O)N[C@H](C)c1cccc2ccccc12 [Compound 8, methyl-(R,E)-4-(2-(3-(4-acetamido-2-((1-(naphthalen-1-yl)ethyl)carbamoyl)phenyl)propanoyl)hydrazineyl)-4-oxobut-2-enoate]	–	–	no	–	14000 M⁻¹ s⁻¹	–	kinact/KI (M^−1 s^−1) [1]: 14,000 M^−1 s^−1
C[C@@H](NC(=O)c1ccccc1CCC(=O)NNC(=O)CCl)c1cccc2ccccc12 [Compound 9, (R)-2-(3-(2-(2-chloroacetyl)hydrazineyl)-3-oxopropyl)-N-(1-(naphthalen-1-yl)ethyl)benzamide]	yes	5.4 µM	no	> 30 µM	100 M⁻¹ s⁻¹	–	kinact/KI (M^−1 s^−1) [1]: 103 M⁻¹ s⁻¹; IC50 [19]: 1.96 µM; IC50 [20]: 20.2 µM; EC50 ([21]; Severe acute respiratory syndrome coronavirus 2, Vero C1008, cytopathic effect in SARS-CoV-2-infected Vero E6 cells, 48 h, MOI 0.1): 34 µM; IC50 [3]: > 30 µM; inhibition of human DUBs [3]: no inhibition was observed; half-life at 1 μM [17]: 7 min; half-life at 1 μM [18]: 3 min
CC(=O)Nc1ccc(CCC(=O)NNC(=O)CCl)c(C(=O)N[C@H](C)c2cccc3ccccc23)c1 [Compound 10, (R)-5-acetamido-2-(3-(2-(2-chloroacetyl)hydrazineyl)-3-oxopropyl)-N-(1-(naphthalen-1-yl)ethyl)benzamide]	yes	4.4 µM	no	–	120 M⁻¹ s⁻¹	no CPE	kinact/KI (M^−1 s^−1) [1]: 120 M⁻¹ s⁻¹; cytoprotective effects ([21]; SARS-CoV-2-infected Vero E6 cells): insignificant cytoprotective effects
C[C@@H](NC(=O)c1ccccc1CCC(=O)NNC(=O)CC#N)c1cccc2ccccc12 [Compound 11, (R)-2-(3-(2-(2-cyanoacetyl)hydrazineyl)-3-oxopropyl)-N-(1-(naphthalen-1-yl)ethyl)benzamide]	not and no	8 µM	no	–	–	no CPE	–
C#CC(=O)NNC(=O)CCc1ccccc1C(=O)N[C@H](C)c1cccc2ccccc12 [Compound 12, (R)—N-(1-(naphthalen-1-yl)ethyl)-2-(3-oxo-3-(2-propioloylhydrazineyl)propyl)benzamide]	Time-dependent inhibition was observed and yes	0.098 µM	yes	1 to 5 µM	4800 M⁻¹ s⁻¹	no CPE	–
C[C@@H](NC(=O)c1ccccc1CCC(=O)NNC(=O)C(C#N)=CC1CC1)c1cccc2ccccc12 [Compound 13, (R)-2-(3-(2-(2-cyano-3-cyclopropylacryloyl)hydrazineyl)-3-oxopropyl)-N-(1-(naphthalen-1-yl)ethyl)benzamide]	not and no	> 200 µM	yes	1 to 5 µM	–	no CPE	–
Cc1ccccc1C(=O)N[C@H](C)c1cccc2ccccc12 [Compound 14, (R)-2-methyl-N-(1-(naphthalen-1-yl)ethyl)benzamide]	–	100 µM	no	–	–	no CPE	EC50 [22]: 10 µM; half-life at 1 μM [17]: 41 min; half-life at 1 μM [18]: > 60 min
CC(=O)Nc1ccc(C)c(C(=O)N[C@H](C)c2cccc3ccccc23)c1 [Compound 15, (R)-5-acetamido-2-methyl-N-(1-(naphthalen-1-yl)ethyl)benzamide]	–	6.2 µM	no	–	–	no CPE	IC50 [23]: 2.6 µM; EC50 [22]: 13.1 µM
CCC(CC)COC(=O)[C@H](C)N[P@](=O)(OC[C@H]1O[C@@](C#N)(c2ccc3c(N)ncnn23)[C@H](O)[C@@H]1O)Oc1ccccc1 [remdesivir, reference compound]	–	–	–	–	–	–	EC50 ([21]; Severe acute respiratory syndrome coronavirus 2, Vero C1008, 48 h): 0.74 µM
GRL0617	–	–	–	–	–	–	Time dep. [1]: no; IC50 [24]: > 100 µM; IC50 [25]: > 100 µM; IC50 [26]: > 100 µM; IC50 [27]: > 100 µM; cytotoxicity [28]: does not display cytotoxicity
